Eight compounds from PubChem BioAssay (NCI) can be followed below.

SMILES strings stand for the structures.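 All cell lines were grown in 96-well plates and treated with compound for 48 hours. At the GI50, growth is halved. TGI is the concentration that stops growth completely.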 Bounds are passed on as bounds.

Among the test systems are BT-549 breast; HOP-92 NSCLC; IGROV1 ovarian; NCI-H226 lung; NCI-H23 lung; NCI-H460 lung; NCI-H522 lung; SW-620 colon; T-47D breast; UACC-62 melanoma.
Holding throughout (assay): NCI anticancer screen, dose series, 48 h

On to `COc1ccc(/C(=C\C=C(C#N)C#N)Sc2nc3ccccc3s2)cc1`, for which the GI50 in the test on BT-549 breast was 6.51 µM; in the test with HOP-92 NSCLC, 0.717 µM; in the test on IGROV1 ovarian, 10 µM; in the test with NCI-H226 lung it was 11.2 µM; in the test on NCI-H23 lung it was 9.46 µM; with NCI-H460 lung, 11.7 µM. Moreover, the GI50 was 14.6 µM with NCI-H522 lung, 1.77 µM in the test with SW-620 colon, 6.82 µM with T-47D breast and 8.63 µM in the test with UACC-62 melanoma. In addition, the TGI in the test on BT-549 breast is 17.5 µM; in the test on HOP-92 NSCLC, 4.14 µM; in the test on IGROV1 ovarian it was 46.4 µM; in the test on NCI-H226 lung, 40.9 µM; in the test with NCI-H23 lung it was 20 µM; in the test with NCI-H460 lung, above 50 µM. Moreover, the TGI was above 50 µM with NCI-H522 lung, above 50 µM with SW-620 colon, 27 µM in the test with T-47D breast and 18.7 µM in the test with UACC-62 melanoma.

In the case of `CC1(Br)Cc2ccccc2C1=O` (stereo not given), the TGI in the test on BT-549 breast is 5.03 µM; in the test on HOP-92 NSCLC, 16.5 µM; in the test with IGROV1 ovarian, 15 µM; in the test on NCI-H226 lung, 5.93 µM; in the test with NCI-H23 lung it was 5.38 µM; with NCI-H460 lung it was above 100 µM. The TGI amounted to 1.41 µM with NCI-H522 lung, 2.69 µM in the test on SW-620 colon, 21.2 µM in the test with T-47D breast and 3.63 µM with UACC-62 melanoma. For the same compound, the GI50 with NCI-H23 lung is 1.88 µM; in the test with NCI-H460 lung, above 100 µM; in the test with NCI-H522 lung, 0.318 µM; with SW-620 colon it was 0.444 µM; with T-47D breast, 4.18 µM.

As to `CC12CCC3c4ccc(O)cc4CCC3C1C/C(=N\O)C2O` (stereo not given), the TGI in the test on BT-549 breast, with HOP-92 NSCLC, with IGROV1 ovarian, with NCI-H226 lung, in the test on NCI-H23 lung and in the test with NCI-H460 lung was above 100 µM each time. The TGI in the test on NCI-H522 lung, with SW-620 colon, with T-47D breast and in the test on UACC-62 melanoma was above 100 µM each time.

On to `CS(=O)(=O)Nc1cc(-c2ccc3ncnc(Nc4c(Cl)ccc5c4OCO5)c3c2)cnc1Cl`, for which the GI50 was 0.132 µM in the test with BT-549 breast; 0.0597 µM with HOP-92 NSCLC; 0.0332 µM with IGROV1 ovarian; 0.309 µM with NCI-H226 lung; 0.25 µM in the test with NCI-H23 lung; 0.236 µM in the test on NCI-H460 lung. Also, the GI50 in the test on NCI-H522 lung is 0.224 µM; with SW-620 colon it was 0.327 µM; in the test on T-47D breast, 0.0243 µM; with UACC-62 melanoma it was 0.0732 µM. Moreover, the TGI in the test on BT-549 breast was determined as 1.04 µM; in the test on HOP-92 NSCLC, 0.639 µM; with IGROV1 ovarian, 0.209 µM; in the test with NCI-H226 lung it was 3.54 µM; in the test on NCI-H23 lung it was 4 µM; in the test with NCI-H460 lung, 4.76 µM. Further, the TGI in the test with NCI-H522 lung is 2.56 µM; in the test on SW-620 colon, 2.99 µM; with T-47D breast, 0.606 µM; in the test with UACC-62 melanoma, 0.785 µM.

Consider `CN1CC[C@@H](c2c(O)cc(O)c3c(=O)cc(-c4ccc(C(F)(F)F)cc4Cl)oc23)[C@@H]1CO`, for which the GI50 was 12.2 µM with BT-549 breast; 13 µM in the test on HOP-92 NSCLC; 11.8 µM in the test on IGROV1 ovarian; 10.5 µM with NCI-H226 lung; 15.2 µM with NCI-H23 lung; 15.8 µM in the test on NCI-H460 lung. In addition, the GI50 with NCI-H522 lung is 17.4 µM; in the test on SW-620 colon, 14.7 µM; in the test with T-47D breast, 14.5 µM; in the test on UACC-62 melanoma, 14.6 µM. Also, the TGI in the test with BT-549 breast amounted to 25.9 µM; in the test with HOP-92 NSCLC, 40.3 µM; in the test on IGROV1 ovarian, 38.6 µM; in the test on NCI-H226 lung it was 77.2 µM; in the test on NCI-H23 lung, 37.3 µM; in the test on NCI-H460 lung, 31.4 µM. Also, the TGI in the test with NCI-H522 lung is 37.3 µM; in the test with SW-620 colon, 31.5 µM; in the test with T-47D breast it was 50.4 µM; with UACC-62 melanoma it was 32.8 µM.

`C=COC(=O)N[C@H]1CCc2cc(OC)c(OC)c(OC)c2-c2ccc(SC)c(=O)cc21`: the TGI in the test with BT-549 breast is below 0.01 µM; in the test on HOP-92 NSCLC it was 22.8 µM; with IGROV1 ovarian, above 100 µM; in the test on NCI-H226 lung, 0.793 µM; in the test on NCI-H23 lung, 12.1 µM; with NCI-H460 lung it was 0.991 µM. Further, the TGI in the test on NCI-H522 lung was below 0.01 µM; in the test with SW-620 colon it was above 100 µM; with T-47D breast it was above 100 µM; in the test on UACC-62 melanoma, above 75 µM.

In the case of `C[C@H](Nc1cc(Cl)nc2c1cnn2[C@@H]1O[C@H](COP(=O)(O)CP(=O)(O)O)[C@@H](O)[C@H]1O)c1ccccc1F`, the GI50 with BT-549 breast, in the test on HOP-92 NSCLC, in the test on IGROV1 ovarian, with NCI-H226 lung, in the test with NCI-H23 lung and in the test on NCI-H460 lung was above 100 µM throughout. In addition, the GI50 with NCI-H522 lung, in the test on SW-620 colon, in the test with T-47D breast and with UACC-62 melanoma was above 100 µM each time. The TGI in the test with BT-549 breast, in the test with HOP-92 NSCLC, in the test on IGROV1 ovarian, in the test on NCI-H226 lung, in the test on NCI-H23 lung and in the test with NCI-H460 lung was above 100 µM in each case. The TGI with NCI-H522 lung, in the test on SW-620 colon, in the test on T-47D breast and in the test on UACC-62 melanoma was above 100 µM in each case.

`O=S(=O)(Nc1ccc(Cl)cc1Cl)c1ccc(-c2cnc(C3CC3)o2)cc1`: the GI50 in the test on BT-549 breast was 0.663 µM; with HOP-92 NSCLC, 0.491 µM; with IGROV1 ovarian, 0.647 µM; with NCI-H226 lung, 1.37 µM; with NCI-H23 lung, 1.4 µM; with NCI-H460 lung it was 0.466 µM. The GI50 was 0.435 µM in the test on NCI-H522 lung, 0.423 µM in the test with SW-620 colon, 0.475 µM in the test on T-47D breast and 0.391 µM with UACC-62 melanoma. Besides, the TGI in the test on BT-549 breast is 36.3 µM; in the test with HOP-92 NSCLC, 15.3 µM; with IGROV1 ovarian, above 73.3 µM; in the test on NCI-H226 lung it was 31.1 µM; with NCI-H23 lung, 55.5 µM; in the test on NCI-H460 lung, above 40.4 µM. The TGI is 17.3 µM in the test with NCI-H522 lung, above 100 µM in the test with SW-620 colon, above 85.8 µM in the test with T-47D breast and 26.7 µM in the test on UACC-62 melanoma.
